Source: patent US20240016777A1, “COMPOUNDS AND METHODS FOR TREATING VIRAL INFECTIONS” (priority 2020, published 2024)

Each compound was assayed against SARS-CoV-2 M^pro (Severe acute respiratory syndrome coronavirus 2 (2019-nCoV) (SARS-CoV-2), UniProt P0DTD1) (assay: biochemical). Conditions: not given.

For `COc1cc(O)c2c(=O)cc(-c3ccc(OC)c(-c4c(O)cc(O)c5c(=O)cc(-c6ccc(O)cc6)oc45)c3)oc2c1` [Ginkgetin], the “Mpro inhibitory activity (comparison in words)” value was “comparable to amentoflavone”.

Same assay, conditions: compound at 17 μM, duplicates, 20 min pre-incubation

In the case of `COc1cc2c(c3c1CC[C@@H](c1ccccc1)O3)[C@H]1c3c(cc(O)c(C)c3OC)O[C@](c3ccccc3)(O2)[C@@H]1O` [Dracoflavan B1], the “Activity (% enzyme activity by fluorescence relative to initial enzyme activity)” value is reported as “++ (enzyme activity as indicated by fluorescence measurements ≥10% and <80%)”.
For `C=C(C)[C@H](CC=C(C)C)Cc1c(O)cc(O)c2c1O[C@H](c1ccc(O)cc1OC)CC2=O` [Isokurarinone], the “Activity (% enzyme activity by fluorescence relative to initial enzyme activity)” value was “++ (enzyme activity as indicated by fluorescence measurements ≥10% and <80%)”.
`O=c1cc(-c2ccc(O)cc2)oc2c([C@@H]3O[C@H](CO)[C@@H](O)[C@H](O)[C@H]3O)c(O)c([C@@H]3OC[C@H](O)[C@H](O)[C@H]3O)c(O)c12` [Isoschaftoside] was tested, and the “Activity (% enzyme activity by fluorescence relative to initial enzyme activity)” value was “++ (enzyme activity as indicated by fluorescence measurements ≥10% and <80%)”.

Same assay, conditions: compound at 17 μM, duplicates, 20 min pre-incubation; read-out: Activity (% enzyme activity by fluorescence relative to initial enzyme activity)

Compared with `CC(C)=CCc1cc([C@@H]2CC(=O)c3c(O)cc(O)c(CC=C(C)C)c3O2)c(O)cc1O` [Euchrestaflavanone B], `COc1cc(O)c(CC=C(C)C)c2c1C(=O)C[C@@H](c1ccc(O)cc1)O2` [Isoxanthohumol] is higher in remaining activity at 17 µM: 10 to 80% for the first, > 80% for the second.

`O=c1c(-c2ccc(O)cc2)coc2cc(O)cc(O)c12` [Genistein] and `O=c1c(O)c(-c2ccc(O)cc2)oc2cc(O)cc(O)c12` [Kaempferol] cannot be ordered by remaining activity at 17 µM: > 80% for the first, > 80% for the second.

In the case of `O=c1c(O)c(-c2ccc(O[C@@H]3O[C@H](CO)[C@@H](O)[C@H](O)[C@H]3O)cc2)oc2cc(O)cc(O)c12` [Kaempferol-4′-O-beta-D-glucopyranoside], the remaining activity at 17 µM is reported as 10 to 80%.

Same assay, conditions: compounds evaluated at 0.015-300 μM; read-out: IC50

`COc1cc2c(c3c1CC[C@@H](c1ccccc1)O3)[C@H]1c3c(cc(O)c(C)c3OC)O[C@](c3ccccc3)(O2)[C@@H]1O` [Dracoflavan B1] and `O=c1cc(-c2ccc(O)cc2)oc2c([C@@H]3O[C@H](CO)[C@@H](O)[C@H](O)[C@H]3O)c(O)c([C@@H]3OC[C@H](O)[C@H](O)[C@H]3O)c(O)c12` [Isoschaftoside] are within 1.5-fold of each other in IC50: 17 µM for the first, 20 µM for the second.

First: CC(C)=CCc1cc([C@@H]2CC(=O)c3c(O)cc(O)c(CC=C(C)C)c3O2)c(O)cc1O [Euchrestaflavanone B]
Second: O=c1c(O)c(-c2ccc(O[C@@H]3O[C@H](CO)[C@@H](O)[C@H](O)[C@H]3O)cc2)oc2cc(O)cc(O)c12 [Kaempferol-4′-O-beta-D-glucopyranoside]
The IC50 of the first is 8-fold higher: 96 µM for the first, 12 µM for the second. The second is the more potent here.

Same assay, conditions: read-out: Activity (% enzyme activity by fluorescence relative to initial enzyme activity), compound at 17 μM, duplicates, 20 min pre-incubation

First: CC(C)=CCc1c2c(c(O)c3c(=O)c4c(oc13)-c1cc(O)c(O)cc1OC4C=C(C)C)C=CC(C)(C)O2 (stereo not shown) [Cycloheterophyllin]
Second: CC(C)=CCc1c(O)cc(O)c2c(=O)c3c(oc12)-c1ccc(O)cc1OC3C=C(C)C (stereo not shown) [Cyclomulberrin]
The remaining activity at 17 µM of the first is higher: > 80% for the first, 10 to 80% for the second.

`CC(C)=CC1Oc2cc(O)ccc2-c2oc3c4c(cc(O)c3c(=O)c21)OC(C)(C)C=C4` (stereo not shown) [Cyclomorusin] and `CC(C)=CCc1c(O)cc2occ(-c3ccc4c(c3)C=CC(C)(C)O4)c(=O)c2c1O` [Isochandalone] cannot be ordered by remaining activity at 17 µM: > 80% for the first, > 80% for the second.

`COc1c2c(cc(O)c1CC=C(C)C)OCC(c1ccc(O)cc1O)=C2` [Dehydroglyasperin C] and `COc1c(CC=C(C)C)c(O)cc2c1CC(c1ccc(O)cc1O)CO2` (stereo not shown) [Glyasperin C] cannot be ordered by remaining activity at 17 µM: > 80% for the first, > 80% for the second.

`C=C(C)C(O)Cc1cc(-c2coc3cc(O)c(CC=C(C)C)c(O)c3c2=O)ccc1O` (stereo not shown) [Derrisisoflavone B] and `C=C(C)C(O)Cc1c(O)c(CC=C(C)C)c(O)c2c(=O)c(-c3ccc(O)cc3)coc12` (stereo not shown) [Erysenegalensein E] cannot be ordered by remaining activity at 17 µM: > 80% for the first, > 80% for the second.

First: CC(C)=CCc1c(O)ccc([C@H]2COc3cc(O)cc(O)c3C2=O)c1O [Dihydrolicoisoflavone]
Second: CC(C)=CCc1cc(-c2oc3cc(O)cc(O)c3c(=O)c2O)ccc1O [Isolicoflavonol]
The remaining activity at 17 µM of the first is higher: > 80% for the first, 10 to 80% for the second.

`O=C1c2c(O)cc(O)cc2O[C@H](c2ccc(O)cc2O)[C@H]1O` [Dihydromorin] and `CC(C)=CCc1c(O)cc(O)c2c1O[C@H](c1ccccc1)[C@@H](O)C2=O` [Glepidotin B] cannot be ordered by remaining activity at 17 µM: > 80% for the first, > 80% for the second.

`C=C(C)C(O)Cc1cc(-c2oc3cc(O)c(OC)c(O)c3c(=O)c2OC)cc(CCC(C)CO)c1O` (stereo not shown) [Dodoviscin A] and `COc1c(-c2cc(CC=C(C)C)c(O)c(CCC(C)CO)c2)oc2cc(O)cc(O)c2c1=O` (stereo not shown) [Dodoviscin H] cannot be ordered by remaining activity at 17 µM: > 80% for the first, > 80% for the second.

`COc1cc(-c2oc3cc(O)cc(O)c3c(=O)c2OC)cc(CC=C(C)C)c1O` [Dodoviscin J] and `COc1c(O)cc2oc(-c3cc(CC=C(C)C)c4c(c3)CC(O)C(C)(C)O4)c(OC)c(=O)c2c1O` (stereo not shown) [Dodovisone A] cannot be ordered by remaining activity at 17 µM: > 80% for the first, > 80% for the second.

First: COc1ccc(-c2oc3c(CC=C(C)C)c(O[C@@H]4O[C@H](CO)[C@@H](O)[C@H](O)[C@H]4O)cc(O)c3c(=O)c2O[C@@H]2O[C@@H](C)[C@H](O)[C@@H](O[C@@H]3O[C@H](CO)[C@@H](O)[C@H](O)[C@H]3O)[C@H]2O)cc1 [Epimedin A1]
Second: COc1ccc(-c2oc3c(CC=C(C)C)c(O[C@@H]4O[C@H](CO)[C@@H](O)[C@H](O)[C@H]4O)cc(O)c3c(=O)c2O[C@@H]2O[C@@H](C)[C@H](O)[C@@H](O)[C@H]2O[C@@H]2O[C@H](CO)[C@@H](O)[C@H](O)[C@H]2O)cc1 [Epimedin A]
The remaining activity at 17 µM of the first is higher: > 80% for the first, 10 to 80% for the second.

`COc1ccc(-c2oc3c(CC=C(C)C)c(O[C@@H]4O[C@H](CO)[C@@H](O)[C@H](O)[C@H]4O)cc(O)c3c(=O)c2O[C@@H]2O[C@@H](C)[C@H](O[C@@H]3OC[C@@H](O)[C@H](O)[C@H]3O)[C@@H](O)[C@H]2O)cc1` [Epimedin B1] and `COc1ccc(-c2oc3c(CC=C(C)C)c(O[C@@H]4O[C@H](CO)[C@@H](O)[C@H](O)[C@H]4O)cc(O)c3c(=O)c2O[C@@H]2O[C@@H](C)[C@H](O)[C@@H](O)[C@H]2O[C@@H]2OC[C@@H](O)[C@H](O)[C@H]2O)cc1` [Epimedin B] fall in the same range of remaining activity at 17 µM: 10 to 80% for the first, 10 to 80% for the second.

`COc1ccc(-c2oc3c(CC=C(C)C)c(O[C@@H]4O[C@H](CO)[C@@H](O)[C@H](O)[C@H]4O)cc(O)c3c(=O)c2O[C@@H]2O[C@@H](C)[C@H](O)[C@@H](O)[C@H]2O[C@@H]2O[C@@H](C)[C@H](O)[C@@H](O)[C@H]2O)cc1` [Epimedin C] and `COc1ccc(-c2oc3c(CC=C(C)C)c(O[C@@H]4O[C@H](CO)[C@@H](O)[C@H](O)[C@H]4O)cc(O)c3c(=O)c2O[C@@H]2O[C@@H](C)[C@H](O)[C@@H](O)[C@H]2O)cc1` [Icariin] fall in the same range of remaining activity at 17 µM: 10 to 80% for the first, 10 to 80% for the second.

`COc1ccc(-c2oc3c(CC=C(C)C)c(O[C@@H]4O[C@H](CO)[C@@H](O)[C@H](O)[C@H]4O)cc(O)c3c(=O)c2O[C@@H]2O[C@@H](C)[C@H](OC(C)=O)[C@@H](O)[C@H]2O[C@@H]2O[C@H](COC(C)=O)[C@@H](O)[C@H](OC(C)=O)[C@H]2O)cc1` [Epimedin K] and `CC(C)=CCc1c(O[C@@H]2O[C@H](CO)[C@@H](O)[C@H](O)[C@H]2O)cc(O)c2c(=O)c(O[C@@H]3O[C@@H](C)[C@H](O)[C@@H](O)[C@H]3O)c(-c3ccc(O)cc3)oc12` [Epimedoside A] cannot be ordered by remaining activity at 17 µM: > 80% for the first, > 80% for the second.

`CC(C)=CCc1cc(-c2cc(=O)c3c(O)cc(O)c(CC=C(C)C)c3o2)cc(O)c1O` [Epimedokoreanin B] and `CC(C)=CCc1cc(-c2coc3cc(O)c(CC=C(C)C)c(O)c3c2=O)cc(O)c1O` [Imbricataflavone A] cannot be ordered by remaining activity at 17 µM: > 80% for the first, > 80% for the second.

`CC(C)=CCc1c(O)cc(O)c2c(=O)cc(-c3cc(O)c4c(c3)C(O)C(C(C)(C)O)O4)oc12` (stereo not shown) [Epimedokoreanin C] and `COc1ccc(-c2oc3c(CC=C(C)C)c(O)cc(O)c3c(=O)c2O)cc1` [Icaritin] cannot be ordered by remaining activity at 17 µM: > 80% for the first, > 80% for the second.

`CC(C)=CCc1c(O)c(CC=C(C)C)c2occc(=O)c2c1O` [Eriosemation] and `CC(C)=CCc1cc(-c2coc3c(CC=C(C)C)c(O)c(CC=C(C)C)c(O)c3c2=O)ccc1O` [Euchrenone B1] cannot be ordered by remaining activity at 17 µM: > 80% for the first, > 80% for the second.

`CC(C)=CCc1c(O)cc(O)c2c1O[C@H](c1ccc3c(c1)C=CC(C)(C)O3)CC2=O` [Euchrenone A10] and `CC(C)=CCc1c(O)cc(O)c2c1O[C@H](c1ccccc1)CC2=O` [Glabranin] cannot be ordered by remaining activity at 17 µM: > 80% for the first, > 80% for the second.

`CC(C)=CCc1cc([C@@H]2CC(=O)c3c(O)cc(O)c(CC=C(C)C)c3O2)ccc1O` [Euchrestaflavanone A] and `CC(C)=CCc1cc(-c2oc3cc(O)c(CC=C(C)C)c(O)c3c(=O)c2O)ccc1O` [Glyasperin A] cannot be ordered by remaining activity at 17 µM: > 80% for the first, > 80% for the second.

`CC(C)=CCc1c(O[C@@H]2O[C@H](CO)[C@@H](O)[C@H](O)[C@H]2O)cc(O)c2c1O[C@H](c1ccc(O)cc1)CC2=O` [Flavaprin] and `COc1ccc(-c2oc3c(CC=C(C)C)c(O[C@@H]4O[C@H](CO)[C@@H](O)[C@H](O)[C@H]4O)cc(O)c3c(=O)c2O)cc1` [Icariside I] cannot be ordered by remaining activity at 17 µM: > 80% for the first, > 80% for the second.

`COc1cc2occ(-c3ccc(O)cc3)c(=O)c2c(O)c1CC=C(C)C` [Gancaonin G] and `COc1ccc(-c2coc3c(CC=C(C)C)c(O)cc(O)c3c2=O)cc1` [Gancaonin M] cannot be ordered by remaining activity at 17 µM: > 80% for the first, > 80% for the second.

`COc1ccc(-c2coc3cc(O)c(CC=C(C)C)c(O)c3c2=O)c(O)c1` [Gancaonin N] and `COc1c(CC=C(C)C)c(O)cc(O)c1-c1coc2cc(O)ccc2c1=O` [Glicoricone] cannot be ordered by remaining activity at 17 µM: > 80% for the first, > 80% for the second.

Compared with `COc1cc2c(c(OC)c1CC=C(C)C)C[C@H](c1ccc(O)cc1O)CO2` [Glyasperin D], `COc1cc(O)c2c(=O)c(O)c(-c3ccc(O)cc3)oc2c1CC=C(C)C` [Isoanhydroicaritin] is higher in remaining activity at 17 µM: 10 to 80% for the first, > 80% for the second.

First: CC(C)=CCc1c(O)cc(O)c2c(=O)c(O[C@@H]3O[C@@H](C)[C@H](O)[C@@H](O)[C@H]3O[C@@H]3OC[C@@H](O)[C@H](O)[C@H]3O)c(-c3ccc(O)cc3)oc12 [Ikarisoside F]
Second: C=C(C)C(O)Cc1c(O)c(CC=C(C)C)c2occ(-c3ccc(O)cc3)c(=O)c2c1O (stereo not shown) [Isoerysenegalensein E]
The remaining activity at 17 µM of the first is lower: 10 to 80% for the first, > 80% for the second.

`CC(C)=CCc1c(O)ccc2c1O[C@H](c1ccc(O)cc1)CC2=O` [Isobavachin] and `CC(C)=CCc1cc(-c2coc3cc(O)cc(O)c3c2=O)ccc1O` [Isowighteone] cannot be ordered by remaining activity at 17 µM: > 80% for the first, > 80% for the second.

`CC(C)=CCc1cc([C@@H]2CCc3ccc(O)cc3O2)c(CC=C(C)C)c(O)c1O` [Kazinol A] and `CC(C)=CCc1c([C@@H]2CCc3ccc(O)cc3O2)cc2c(c1O)OC(C)(C)C=C2` [Kazinol B] cannot be ordered by remaining activity at 17 µM: > 80% for the first, > 80% for the second.
